Several values for one entry are separate records, joined by “and”; a condition that tells them apart may be missing. Equal entries are not always repeated.
Key:
[1] = ref EFSA [2012]; EFSA [2008]; cited from earlier work
rodents = tested on: rodents; design: method as in EFSA [2008]; conditions: basis of the TDI; ref EFSA [2008]; cited from earlier work
C57BL/6JxFVB hybrid mice [2] = test: Body size, organ and fat pad weights at necropsy; conditions: for Emax: Mus musculus
C57BL/6JxFVB hybrid mice [3] = test: Histopathology of brown adipose tissue; type: in vivo
Experimental: Some measurements included only control and one or two dose groups and could therefore not be analyzed as dose–responses. GTT was therefore evaluated by repeated-measures or nested (to account for litter covariance) two-way ANOVAs (Graphpad Prism 5.0, R) to detect differences at the different time points and between the areas under the curve (AUC). Activity measurement, ucp1 expression, WAT adipocyte size and the proxy for cell number were also tested with a nested ANOVA (R). Differences in distribution of BAT histopathology scores between experimental groups were tested for statistical significance in a two-tailed Fisher’s exact test.

[4] = cited from earlier work
C57BL/6JxFVB hybrid mice [5] = test: Serum lipids and glucose; conditions: for Emax: Mus musculus
C57BL/6JxFVB hybrid mice [6] = test: Offspring body weight and growth after perinatal exposure; type: in vivo; design: key to Time of effect: P: permanent effect on body weight throughout study; D: delayed (late onset) of effect; T: transient effect; E: effect observed during treatment; conditions: for Emax: Mus musculus
Experimental: PFOA was obtained as sodium perfluoro-n-octanoate (PFOA-Na; CAS No. 335-95-5, purity >99 %) and kindly provided by Wellington Laboratories Inc., Ontario, Canada. PFOA-Na was dissolved in acetone and mixed with the diet (NIH-07, Research Diet Services, Wijk bij Duurstede, The Netherlands). Thereafter, acetone was allowed to evaporate, and this master mixture was serially diluted with a factor 3–3.3 by adding NIH-07, and afterward, the diet was pelleted. In this way, seven diet groups and a control NIH-07 (blank acetone was added) were obtained, aiming at concentrations of 0, 0.017, 0.056, 0.17, 0.56, 1.7, 5.6 and 17 mg/kg PFOA in feed, which corresponded to 0, 3, 10, 30, 100, 300, 1000 and 3000 µg/kg bw based on an average food consumption of 4.5 g per mouse (average body weight of 25 g) per day. PFOA concentrations in test diets were confirmed by isotope dilution liquid chromatography mass spectrometry after extraction with methanol (8402, JT Baker, Deventer the Netherlands) and a cleanup with carbon solid phase extraction (ENVI Carb, 57210-U, Supelco, Zwijndrecht, the Netherlands). Actual PFOA concentrations in the food were 15–30 % lower than the nominal values. The non-purified soy-based NIH-07 was chosen because it was originally designed to optimize gestation, lactation and growth of rodents, and avoiding natural phytoestrogens in the diet may have confounding effects (Ruhlen et al. [2008]). Estrogenic and anti-estrogenic activity for this diet was previously analyzed to be low and absent, respectively (van Esterik et al. [2014]).
A high fat diet (D12451, Research Diet Services, Wijk bij Duurstede, The Netherlands), containing 45 kcal % fat (lard) compared with 15 kcal % fat in the NIH-07 diet, was given to all F1 mice during the final weeks of the study (21–28 weeks of age).
After an acclimatization period of 1 week, female F0 mice were fed experimental diets explained above starting 2 weeks before mating and continued during mating (1 week), gestation (3 weeks) and lactation (3 weeks). Each dose group had six F0 females, which were mated three by three with two F0 males for each dose group. […] For every dose group, on average 9 mice per sex (range 6–10) were included for follow-up through juvenile and adult stages, selecting pups proportionally from available litters. F1 males were single-housed, and F1 females were housed in pairs from the same litter in standard Macrolon type I cages. Body weight was measured at postnatal day (PND) 4, 7, 14 and 21 and weekly from 5 weeks of age continuing until the end of the study. Food consumption could not be recorded reliably due to high spillage.
Growth was calculated by dividing body weight of subsequent weeks by body weight at week 5, i.e., at the start of the F1 follow-up.

[7] = C57BL/6JxFVB, 3-10-30-100-300-1000-3000 µg/kg bw/d, diet, 2w pre-mating-PND21, this study
[8] = females, 300 and 3000 combined, p = 0.097 vs control
[9] = males, 300 and 3000 combined, p < 0.05 vs control
[10] = F1 females, CES 5 %, high fat diet

O=C(O)C(F)(F)C(F)(F)C(F)(F)C(F)(F)C(F)(F)C(F)(F)C(F)(F)F [PFOA, Perfluorooctanoic acid]
Tolerable daily intake (TDI) [1]: 1.5 µg/kg bw/d
BMDL10 for liver effects in rodents (rodents): 300 µg/kg bw/d
Other relevant effects of PFOA (C57BL/6JxFVB hybrid mice [2]; [7]): F: ↓ fat pad weights; ↓ serum cholesterol; ↓ serum triglycerides
Perirenal fat pad weight: BMDL corrected for measured levels of PFOA in the feed (15–30 % lower than nominal) (C57BL/6JxFVB hybrid mice [2]; F1 females): 46–55 µg/kg bw/d and 46 µg/kg bw/d
Femur length: BMDL (C57BL/6JxFVB hybrid mice [2]; F1 females, CES 5 %): 2423 µg/kg bw/d
Femur length: BMDU (C57BL/6JxFVB hybrid mice [2]; F1 females, CES 5 %): 6999 µg/kg bw/d
Femur weight: BMDL (C57BL/6JxFVB hybrid mice [2]; F1 females, CES 5 %): 989 µg/kg bw/d
Femur weight: BMDU (C57BL/6JxFVB hybrid mice [2]; F1 females, CES 5 %): 5060 µg/kg bw/d
Perirenal fat pad weight: BMDL (C57BL/6JxFVB hybrid mice [2]; F1 females, CES 5 %): 65 µg/kg bw/d
Perirenal fat pad weight: BMDU (C57BL/6JxFVB hybrid mice [2]; F1 females, CES 5 %): 362 µg/kg bw/d
Quadriceps femoris muscle weight: BMDL (C57BL/6JxFVB hybrid mice [2]; F1 females, CES 5 %): 432 µg/kg bw/d
Quadriceps femoris muscle weight: BMDU (C57BL/6JxFVB hybrid mice [2]; F1 females, CES 5 %): 1356 µg/kg bw/d
Emax (C57BL/6JxFVB hybrid mice [2]; read-out: Femur length: max effect size, F1 females): -4.2%
Emax (C57BL/6JxFVB hybrid mice [2]; read-out: Femur weight: max effect size, F1 females): -8.6%
Emax (C57BL/6JxFVB hybrid mice [2]; read-out: Liver weight: max effect size, F1 males): 16%
Emax (C57BL/6JxFVB hybrid mice [2]; read-out: Perigonadal fat pad weight: max effect size, F1 females): -56%
Emax (C57BL/6JxFVB hybrid mice [2]; read-out: Perirenal fat pad weight: max effect size, F1 females): -57%
Emax (C57BL/6JxFVB hybrid mice [2]; read-out: Quadriceps femoris muscle weight: max effect size, F1 females): -19%
Emax (C57BL/6JxFVB hybrid mice [2]; read-out: Tibia length: max effect size, F1 females, exponential modeling only): -5%
Emax (C57BL/6JxFVB hybrid mice [2]; read-out: Tibia length: max effect size, F1 males): -1.6%
Developmental BMDL of 46 µg/kg bw/d: times lower than the BMDL10 of 300 µg/kg bw/d used for the TDI (C57BL/6JxFVB hybrid mice [2]; mouse, in vivo): 6.5 times
Brown adipose tissue (interscapular fat pad) histopathology (C57BL/6JxFVB hybrid mice [3]; females vs control females, p = 0.097): trend for lipid depletion
Brown adipose tissue lipid accumulation: count of individuals with Grade 3 (C57BL/6JxFVB hybrid mice [3]; [8]): 4
Brown adipose tissue lipid accumulation: count of individuals with Grades 1, 2 (C57BL/6JxFVB hybrid mice [3]; [8]): 14
Brown adipose tissue (interscapular fat pad) histopathology (C57BL/6JxFVB hybrid mice [3]; males vs control males): significant lipid accumulation
Brown adipose tissue lipid accumulation: count of individuals with Grades 1, 2, 3 (C57BL/6JxFVB hybrid mice [3]; [9]): 4
Brown adipose tissue lipid accumulation: count of individuals with Grades 4, 5, 6 (C57BL/6JxFVB hybrid mice [3]; [9]): 13
Level in adult human serum samples ([4]; detected globally, ref Calafat et al. [2007]): 3.6 to 4.3 ng/mL
Level in serum of pregnant mothers ([4]; ref Grandjean et al. [2012]): 2.6 to 4.0 ng/mL
Level in cord plasma ([4]; ref de Cock et al. [2014]): 0.3 to 2.7 ng/mL
Serum triglycerides: BMDU/BMDL (C57BL/6JxFVB hybrid mice [5]; F1 females): 100
Serum cholesterol: BMDL (C57BL/6JxFVB hybrid mice [5]; F1 females, CES 5 %): 402 µg/kg bw/d
Serum cholesterol: BMDU (C57BL/6JxFVB hybrid mice [5]; F1 females, CES 5 %): 1284 µg/kg bw/d
Serum triglycerides: BMDL (C57BL/6JxFVB hybrid mice [5]; F1 females, CES 5 %): 6.2 µg/kg bw/d
Serum triglycerides: BMDU (C57BL/6JxFVB hybrid mice [5]; F1 females, CES 5 %): 623 µg/kg bw/d
Emax (C57BL/6JxFVB hybrid mice [5]; read-out: Serum cholesterol: max effect size): -20%
Emax (C57BL/6JxFVB hybrid mice [5]; read-out: Serum triglycerides: max effect size): -27%
Endpoint bw (age) F (C57BL/6JxFVB hybrid mice [6]; [7]): ↓ PND4–w27
Endpoint bw (age) M (C57BL/6JxFVB hybrid mice [6]; [7]): ↓ PND4–w23
Time of effect (C57BL/6JxFVB hybrid mice [6]; C57BL/6JxFVB, this study, in males not observed during final 2 weeks (w24–25) under high fat diet): P^d
Body weight week 21: BMDL (C57BL/6JxFVB hybrid mice [6]; F1 females, CES 5 %): 1239 µg/kg bw/d
Body weight week 21: BMDU (C57BL/6JxFVB hybrid mice [6]; F1 females, CES 5 %): 3595 µg/kg bw/d
Body weight week 27: BMDL (C57BL/6JxFVB hybrid mice [6]; [10]): 849 µg/kg bw/d
Body weight week 27: BMDU (C57BL/6JxFVB hybrid mice [6]; [10]): 5645 µg/kg bw/d
Body weight week 21: BMDL (C57BL/6JxFVB hybrid mice [6]; F1 males, CES 5 %): 1024 µg/kg bw/d
Body weight week 21: BMDU (C57BL/6JxFVB hybrid mice [6]; F1 males, CES 5 %): 3457 µg/kg bw/d
Growth week 25/5: BMDL (C57BL/6JxFVB hybrid mice [6]; F1 males, CES 5 %): 948 µg/kg bw/d
Growth week 25/5: BMDU (C57BL/6JxFVB hybrid mice [6]; F1 males, CES 5 %): 2383 µg/kg bw/d
Emax (C57BL/6JxFVB hybrid mice [6]; F1 females, read-out: Body weight week 21: max effect size): -8%
Emax (C57BL/6JxFVB hybrid mice [6]; F1 females, read-out: Body weight week 27: max effect size): -9.1%
Emax (C57BL/6JxFVB hybrid mice [6]; F1 females, read-out: Growth week 27/5: max effect size): -8.6%
Emax (C57BL/6JxFVB hybrid mice [6]; F1 males, read-out: Body weight week 21: max effect size): -9.1%
Emax (C57BL/6JxFVB hybrid mice [6]; F1 males, read-out: Growth week 25/5: max effect size): 11%
Body weight PND4: CED (C57BL/6JxFVB hybrid mice [6]; females, CES −0.05, Fig. 2c): 0.0628 µg/kg body weight/day
Body weight PND4: CEDLbt (C57BL/6JxFVB hybrid mice [6]; females, CES −0.05, Fig. 2c): 2.004e−08 µg/kg body weight/day
Body weight PND4: CEDUbt (C57BL/6JxFVB hybrid mice [6]; females, CES −0.05, Fig. 2c): 42.23 µg/kg body weight/day
Body weight week 27: CED (C57BL/6JxFVB hybrid mice [6]; females, CES −0.05, Fig. 2d): 1560 µg/kg body weight/day
Body weight week 27: CEDLbt (C57BL/6JxFVB hybrid mice [6]; females, CES −0.05, Fig. 2d): 849.1 µg/kg body weight/day
Body weight week 27: CEDUbt (C57BL/6JxFVB hybrid mice [6]; females, CES −0.05, Fig. 2d): 5645 µg/kg body weight/day
Body weight from PND4 until adulthood (week 21) (C57BL/6JxFVB hybrid mice [6]; females, standard diet): dose-dependently decreased
Body weight at PND4 (C57BL/6JxFVB hybrid mice [6]; males): dose-dependent decrease
Body weight PND4: CEDLbt (C57BL/6JxFVB hybrid mice [6]; males, CES −0.05, Fig. 2a): 1e−12 µg/kg body weight/day
Body weight PND4: CEDUbt (C57BL/6JxFVB hybrid mice [6]; males, CES −0.05, Fig. 2a): 42.23 µg/kg body weight/day
Body weight PND4: CED (C57BL/6JxFVB hybrid mice [6]; males, CES −0.05, Fig. 2a, unit from legend): 0.0039 µg/kg body weight/day
Body weight in weeks 22 and 23 (C57BL/6JxFVB hybrid mice [6]; males, high fat diet, data not shown): dose-dependent decrease
